Source: article PMC6154605, “Multi-Anti-Parasitic Activity of Arylidene Ketones and Thiazolidene Hydrazines against Trypanosoma cruzi and Leishmania spp” (Molecules : A Journal of Synthetic Chemistry and Natural …, 2017)
Like-named read-outs stand apart in the source and are kept apart here. Marks after values point to notes of the source that are not given here.

Experiments:
[1] = test system: L. braziliensis promastigotes; assay: Leishmanicidal activity on promastigotes, resazurin; type: cell-based, Leishmania braziliensis; settings: for IC50: Leishmania braziliensis, 48 h, read-out: IC50 ± SD Promastigotes L. braziliensis; for SI NCTC/ L. braziliensis: ratio IC50 mammalian cell / IC50 parasite (promastigotes)
Description: (§1) We initially selected compounds previously reported to have anti-T. cruzi activity from our chemical library to evaluate their leishmanicidal activity. […]. To evaluate their activity in Leishmania spp., we performed a phenotypic screening using the promastigote form of L. infantum (MHOM/FR/91/LEM-2259) and L. braziliensis ([…]) (Table 1A for the thiazolidenehydrazine derivate and Table 1B for the arylideneketones family).
(§2) A culture of L. braziliensis (MHOM/BR/75/M2904) and L. infantum (MHOM/FR/91/LEM2259V) was obtained from the Facultad de Farmacia (Universidad Complutense, Madrid, Spain). The maintenance of the strains, the form of cultivation and the isolation of the shape of the promastigote were performed following the procedures described by Roldos et al.. The promastigotes were grown at 22 °C in Schneider’s Drosophila medium supplemented with 20% FBS. The assay was performed using a modification of a previous method. Promastigotes (2 × 10^6 parasites/well) were cultivated in 96-well plastic plates. Compounds were dissolved in dimethylsulfoxide (DMSO). Different dilutions of the compounds with a final volume up to 200 µL were added. After 48 h at 26 °C, 20 µL of a 2 mM resazurin solution were added, and the oxidation-reduction was quantified at 570 and 600 nm. The solution of resazurin was prepared at 2.5 mM in phosphate buffered solution (PBS), pH 7.4, and filtered through 0.22-µm membranes prior to use. All tests were carried out in triplicate. Resazurin sodium salt was obtained from Sigma-Aldrich (St. Louis, MO, USA) and stored at 4 °C protected from light. The efficacy of each compound was estimated by calculating the IC50 values. Each antiproliferative experiment was done in duplicate, and each concentration was tested in triplicate.

[2] = test system: L. infantum promastigotes; assay: as above; type: cell-based, Leishmania infantum; settings: for IC50: Leishmania infantum, 48 h, read-out: IC50 ± SD Promastigotes L. infantum; for SI NCTC/ L. infantum: ratio IC50 mammalian cell / IC50 parasite (promastigotes)
Description: as §1, §2

NCTC929 fibroblasts = assay: Nonspecific cytotoxicity on fibroblasts, resazurin; type: cell-based; settings: NCTC-929, 24 h; read-out: IC50 ± SD Fibroblast NCTC929
Method: To establish the selectivity of the compounds against the parasites, nonspecific cytotoxicity against mammalian cells, using J774.1 murine macrophages and fibroblast NCTC929, was studied for the most relevant derivatives. The selectivity indexes were calculated as the ratio between cytotoxicity for mammalian cells and the anti-parasitic activity (Table 2).
NCTC-Clone 929 were grown in minimal essential medium (Sigma) supplemented with 10% heat-inactivated FBS, penicillin G (100 U/mL) and streptomycin (100 µg/mL). Cell cultures were maintained at 37 °C in a humidified 5% CO2 atmosphere. The procedure for cell viability measurement was evaluated with resazurin by a colorimetric method. The cells were plated in 96 microtiter plates at 3.00 × 10^4 cells/well in 100 µL growth medium. The cells were grown overnight at 37 °C, 5% CO2. Thereafter, the medium was removed, and the compounds were added to 200 µL of medium for 24 h. After incubation, 20 µL of a 2 mM resazurin solution were added to each well. The plates were incubated for 3 h to allow optimal oxidation-reduction. The reduction of resazurin was determined by dual wavelength absorbance measurement at 490 and 595 nm. The background was subtracted. Each concentration was assayed three times. Medium and drug controls were used in each test as blanks.

[3] = target: T1, LmTIM (triosephosphate isomerase from Leishmania mexicana) (Leishmania mexicana, UniProt P48499); assay: Inhibition of triosephosphate isomerase; type: biochemical; settings: for IC50: read-out: IC50 ± SD LmTIM; for inhibition at 100 µM: read-out: Percentage of Inhibition LmTIM
T1 construct: made in house; host or cells: Escherichia coli
T1 sequence (P48499 whole entry): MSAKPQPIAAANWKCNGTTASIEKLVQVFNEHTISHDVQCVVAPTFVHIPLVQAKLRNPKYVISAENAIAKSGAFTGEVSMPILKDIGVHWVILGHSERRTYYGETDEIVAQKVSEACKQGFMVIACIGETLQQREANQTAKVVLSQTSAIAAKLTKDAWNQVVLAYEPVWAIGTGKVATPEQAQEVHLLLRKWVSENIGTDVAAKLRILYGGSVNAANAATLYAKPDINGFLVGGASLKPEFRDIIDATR
Method: Compounds were dissolved in DMSO. […] The experiments were performed in triplicate.

[4] = test system: T. cruzi epimastigotes, Tulahuen 2 strain (genotype TcVI); settings: cited from earlier work; for SI J774.1/ T. cruzi: ratio IC50 mammalian cell / IC50 parasite (epimastigotes); for IC50: read-out: IC50 ± SD Epimastigotes T. cruzi
[5] = test system: J774.1 murine macrophages; settings: read-out: IC50 ± SD Murine Macrophages, cited from earlier work
cruzipain [6] = target: T2, cruzipain (Trypanosoma cruzi, UniProt P25779); settings: at 100 µM; cited from earlier work
T2 sequence (P25779 123-467): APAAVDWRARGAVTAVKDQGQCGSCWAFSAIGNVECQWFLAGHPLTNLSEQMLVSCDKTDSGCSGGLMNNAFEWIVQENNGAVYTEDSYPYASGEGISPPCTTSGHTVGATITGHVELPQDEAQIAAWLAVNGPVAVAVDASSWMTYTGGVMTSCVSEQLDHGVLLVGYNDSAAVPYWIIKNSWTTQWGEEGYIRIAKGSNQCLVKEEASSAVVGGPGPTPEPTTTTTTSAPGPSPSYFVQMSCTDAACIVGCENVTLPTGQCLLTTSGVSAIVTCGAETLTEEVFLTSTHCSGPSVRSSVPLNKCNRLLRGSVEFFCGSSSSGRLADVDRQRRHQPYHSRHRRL

[7] = target: T3, triosephosphate isomerase from T. cruzi (TcTIM) (Trypanosoma cruzi, UniProt P52270); set-up: made in house; host or cells: Escherichia coli; settings: cited from earlier work; for Percentage of Inhibition TcTIM: at 100 µM; for IC50: read-out: IC50 ± SD TcTIM
T3 sequence (P52270 whole entry): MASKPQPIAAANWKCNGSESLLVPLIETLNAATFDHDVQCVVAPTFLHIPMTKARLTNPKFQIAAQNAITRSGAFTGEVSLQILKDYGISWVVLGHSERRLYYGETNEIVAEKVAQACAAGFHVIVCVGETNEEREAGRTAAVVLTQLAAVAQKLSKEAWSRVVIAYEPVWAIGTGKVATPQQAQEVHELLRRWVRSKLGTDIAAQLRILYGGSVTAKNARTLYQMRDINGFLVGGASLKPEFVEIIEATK

[8] = test system: T. cruzi epimastigotes, Tulahuen 2 strain (genotype TcVI); assay: In vitro anti-T. cruzi activity, growth inhibition of epimastigotes; type: cell-based, Trypanosoma cruzi; settings: ratio IC50 mammalian cell / IC50 parasite (epimastigotes)
Method: For the in vitro anti-T. cruzi activity, we used epimastigotes of the Tulahuen 2 strain (genotype TcVI) grown in an axenic milieu (BHI-Tryptose). Cells from a 5–7-day-old culture were inoculated in fresh culture milieu to give an initial concentration of 1.00 × 10^6 cells/mL. The absorbance at 600 nm of the cells in culture was measured every day. At Day 5, the milieu was inoculated with different quantities of the compounds from a stock solution in DMSO (DMSO concentration in the culture milieu never exceeded 0.4%). The control was made in the presence of 0.4% DMSO and in the absence of compounds. Each concentration of compound was evaluated in duplicate. At Day 5, the absorbance of the culture was measured and related to the control. […] Each antiproliferative experiment was done in duplicate, and each concentration was tested in triplicate.

cruzipain [9] = target: T2, cruzipain; assay: Inhibition of T. cruzi cruzipain; type: biochemical
Method: Cruzipain was purified to homogeneity from epimastigotes of the Tulahuen 2 strain by ConA–Sepharose affinity chromatography, as previously described. Cruzipain (2.5 μM ε = 58,285 M^−1cm^−1) was incubated in 50 mM acetate buffer pH 5.5 with 5 mM DTT, and 100 μM inhibitor were added, shaking the solution for 15 min at 27 °C. The derivatives were added as solutions in DMSO, and the controls contained the same solvent concentration. The concentration of DMSO never exceeded 1% in the reaction medium. L-leucylam-ido(4-guanidino)butane (E-64) was used as a positive control of inhibition. Then, the fluorogenic substrate Z-Phe-Arg 7-amido-4-methylcoumarin hydrochloride (Z-Phe-Arg-AMC) at 10 μM was added, and the fluorescence was measured during 10 min at intervals of 3 s (excitation at 380 nm and emission at 460 nm) using a Varioskan Flash Spectrophotometer. From the slope of the negative control, we calculated the total (100%) enzyme activity, while the slopes obtained in the presence of the compounds yielded the percentage of remaining enzyme activity. The percentage of enzyme inhibition was determined as […]. The experiments were done in duplicate.

zebrafish embryos = assay: Zebrafish embryo toxicity test (LD50)
Method: […] Only embryos that were clearly undamaged after 60 min of observation were kept and subsequently used. Dechorionated embryos were further manipulated using flame-rounded tip glass Pasteur pipettes. […] In all cases, the embryos were incubated in system water with 1% DMSO (negative control) and the compound at different doses between 8 and 96 hpf. The treatment solution was changed daily. […] At selected time points, namely 24, 48, 72 and 96 hpf, embryotoxicity (= mortality) and morphological characteristics of the embryos were evaluated using a Nikon SMZ800 stereomicroscope. The embryos were evaluated for the presence and morphological development (as appropriate) of somites, tail detachment, eyes, heart beat and blood circulation. All individuals were evaluated at all time points.

T. cruzi amastigotes = test system: T. cruzi amastigotes; set-up: method as in PMID 26492824, PMID 24749923, doi:10.1039/C6RA27851E; settings: 5 µM, 72 h; cited from earlier work
T. cruzi = settings: 100 mg/kg body weight in mice, acute model; cited from earlier work
[10] = target: T3, triosephosphate isomerase from T. cruzi (TcTIM); assay: Inhibition of triosephosphate isomerase; settings: read-out: Percentage of Inhibition TcTIM
Method: Expression and purification of proteins: TcTIM, LmTIM and HsTIM were expressed in Escherichia coli and purified as described in the literature [39]. […] Before use, extensive dialysis against 100 mM triethanolamine/10 mM EDTA (pH 7.4) was performed.
Enzymatic activity assays: Enzymatic activity was determined following the conversion of glyceraldehyde 3-phosphate into dihydroxyacetone phosphate. […] The reaction mixture (1 mL, pH 7.4) contained 100 mM triethanolamine, 10 mM EDTA, 0.2 mM NADH, 1 mM glyceraldehyde 3-phosphate and 0.9 units of α-glycerol phosphate dehydrogenase. The reaction was initiated by the addition of 5 ng/mL of the TcTIM.
The mixture also contained the compounds at the indicated concentrations. Compounds were dissolved in DMSO. After 2 h, 10 µL was withdrawn and added to a final volume of 100 µL of the reaction mixture for the activity assay. The inhibition assay was performed in a 96-well microplate Varioskan spectrophotometer. […] The experiments were performed in triplicate.

[11] = test system: L. braziliensis promastigotes; set-up: method as in PMID 24749923; settings: footnote c; read-out: IC50 ± SD Promastigotes L. braziliensis; cited from earlier work
[12] = test system: L. infantum promastigotes; set-up: method as in PMID 11913540; settings: superscript b printed; previously reported compound; read-out: IC50 ± SD Promastigotes L. infantum; cited from earlier work

| SMILES | IC50 [1] [µM] | SI NCTC/ L. braziliensis [1] | IC50 [2] [µM] | SI NCTC/ L. infantum [2] | IC50 (NCTC929 fibroblasts) [µM] | IC50 [3] [µM] | inhibition at 100 µM [3] [%] | SI J774.1/ T. cruzi [4] | IC50 [4] [µM] | IC50 ([5]; J774.1) [µM] | Percentage of Inhibition Cruzipain (cruzipain [6]) | Percentage of Inhibition TcTIM [7] | SI J774.1/ T. cruzi [8] | also measured |
| --- | --- | --- | --- | --- | --- | --- | --- | --- | --- | --- | --- | --- | --- | --- |
| O=C(/C=C/c1cccs1)/C=C/c1cccs1 [EA138] | 8 ± 2 | 20 | 4 ± 0.5 | 40 | 158 ± 5 | < 25 | 100 | 8 ^c | 5 ± 0.8 | 38 ± 7 | 50/- ^d | 0/- ^d | – | – |
| C=CCn1c(C(=O)N2CCN(C/C=C/c3ccccc3)CC2)cs\c1=N/N=C/C=C/c1ccco1 [HIT1] | 12 ± 5 | 29 | 4 ± 1 | 87 | 346 ± 9 | – | 0 | – | 3.1 ± 0.2 | 30 ± 5 | – | – | 10 | inhibition at 100 µM (cruzipain [9]; at 100 µM, read-out: Percentage of Inhibition Cruzipain): 100%; IC50 (cruzipain [9]; pool of cruzipain isoforms obtained from T. cruzi, read-out: IC50 ± SD Cruzipain): 4.3 µM; LD50 without chorion (zebrafish embryos; dechorionated zebrafish embryos, 72 h incubation): 61 ± 2 µM; LD50 with chorion (zebrafish embryos; zebrafish embryos with chorion): > 100 µM; Amastigotes in infected Vero cell culture after treatment (T. cruzi amastigotes): cytosol without amastigotes; Reduction of the parasitemia (T. cruzi): 70%; inhibition at 100 µM [10]: 0% |
| O=C1/C(=C/c2cccc3cnccc23)CC/C1=C\c1cccc2cnccc12 [Comp13, reference compound] | – | 23 | – | – | – | – | – | – | 31 ± 2 | – | – | – | 1 | IC50 [11]: 0.9 ± 0.2 µM; IC50 [5]: 21 ± 5 µM |
| O=C1/C(=C/C=C/c2ccco2)CCC/C1=C\C=C\c1ccco1 [HIT2] | 7 ± 1 | 23 | 13 ± 7 | 12 | 160 ± 9 | < 25 | 100 | 17 ^c | 0.6 ± 0.2 | 10 ± 2 | 80 | 100 | – | IC50 [7]: 0.086 µM |
| O=C(/C=C/C=C/c1ccco1)/C=C/C=C/c1ccco1 [EA128] | 36 ± 9 | 14 | 31 ± 9 | 16 | 494 ± 25 | – | 0 | 12 ^c | 5 ± 0.7 | 60 ± 3 | 48/- ^d | 100 | – | – |
| CC(/C=C/C(=O)/C=C/C(C)=C/c1ccco1)=C\c1ccco1 [EA155] | 16 ± 2 | 34 | 6 ± 1 | 91 | 543 ± 15 | < 25 | 100 | 4 ^c | 8.2 ± 2 | 33 ± 8 | 0/- ^d | 100 | – | IC50 [7]: 3.3 µM |
| COc1cc(/C=C/C(=O)CC(=O)/C=C/c2ccc(O)c(OC)c2)ccc1O [Curcumin, reference compound] | – | 2 | – | – | – | – | – | – | 5.6 ± 1 | – | – | – | 2 | IC50 [12]: 5.9 ± 0.3 µM; IC50 [5]: 10 ± 2 µM |
